{"source": "patent US5807878A", "about": "“Tetrasubstituted imidazoles” (Uclaf; Roussel, priority 1994, dated 1998)", "key": {"[1]": {"target": "T1, AT1 receptor of angiotensin II (Rattus norvegicus, UniProt P25095)", "T1 construct": "A fresh membrane preparation obtained from rat's liver is used; from tissue; host or cells: rat liver membranes", "T1 sequence (P25095 1-359)": "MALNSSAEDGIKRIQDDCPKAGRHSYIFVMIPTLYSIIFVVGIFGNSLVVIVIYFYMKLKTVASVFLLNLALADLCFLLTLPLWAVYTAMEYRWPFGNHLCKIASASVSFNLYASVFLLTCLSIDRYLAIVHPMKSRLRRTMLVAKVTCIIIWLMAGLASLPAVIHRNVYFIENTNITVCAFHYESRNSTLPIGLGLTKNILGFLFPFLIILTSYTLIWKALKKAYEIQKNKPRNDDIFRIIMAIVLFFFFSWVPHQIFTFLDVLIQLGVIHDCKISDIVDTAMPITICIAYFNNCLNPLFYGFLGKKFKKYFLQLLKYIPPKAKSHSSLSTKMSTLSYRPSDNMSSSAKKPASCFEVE", "test": "Test on the AT1 receptor of angiotensin II (displacement of 125I angiotensin II, rat liver membranes)", "assay_type": "binding", "settings": "25° C., 150 minutes, pH 7.4", "protocol": "1--Test on the AT1 receptor of angiotensin II\n(§1) A fresh membrane preparation obtained from rat's liver is used. The tissue is ground up in a polytron in a 50 mM Tris buffer pH 7.4, the grinding is followed by 3 centrifugations at 30,000 g for 15 minutes with intermediate take up of the pellets in the Tris buffer pH 7.4.\nThe last pellets are suspended in an incubation buffer (20 mM Tris, 135 mM NaCl, 10 mM KCl, 5 mM glucose, 135 mM MgCl2, 0.3 mM PMSF, 0.1 mM bacitracin, 0.1% lysozyme).\n(§2) 1 ml aliquoted fractions are distributed in glass tubes and ^125 I angiotensin II (25,000 DPM/tube) and the product to be studied are added. (The product is first tested at 3×10^-5 M three times). When the tested product displaces more than 50% of the radioactivity specifically bound to the receptor, it is tested again according to a range of 7 concentrations in order to determine the concentration which inhibits by 50% the radioactivity specifically bound to the receptor. In this way the 50% inhibitory concentration is determined).\n(§3) The non-specific bond is determined by the addition of the product of Example 94 of the European Patent 0,253,310, at 10^-5 M (three times). After incubation at 25° C. for 150 minutes, placing in a water bath at 0° C. for 5 minutes, filteration under vacuum and rinsing with Tris buffer pH 7.4, the radioactivity is counted in the presence of a scintillating solid.\n(§4) The result is expressed directly as the 50% inhibitory concentration (IC50), that is to say as the concentration of product studied, expressed in nM, necessary to displace 50% of the specific radioactivity fixed to the receptor studied."}, "[2]": {"target": "T2, AT2 receptor of angiotensin II (Oryctolagus cuniculus, UniProt G1T351)", "T2 construct": "A fresh membrane preparation obtained from rabbit's uterus is used; from tissue; host or cells: rabbit uterus membranes (estradiol-pretreated, homogenate preincubated with 10 mM dithiothreitol)", "T2 sequence (G1T351 1-363)": "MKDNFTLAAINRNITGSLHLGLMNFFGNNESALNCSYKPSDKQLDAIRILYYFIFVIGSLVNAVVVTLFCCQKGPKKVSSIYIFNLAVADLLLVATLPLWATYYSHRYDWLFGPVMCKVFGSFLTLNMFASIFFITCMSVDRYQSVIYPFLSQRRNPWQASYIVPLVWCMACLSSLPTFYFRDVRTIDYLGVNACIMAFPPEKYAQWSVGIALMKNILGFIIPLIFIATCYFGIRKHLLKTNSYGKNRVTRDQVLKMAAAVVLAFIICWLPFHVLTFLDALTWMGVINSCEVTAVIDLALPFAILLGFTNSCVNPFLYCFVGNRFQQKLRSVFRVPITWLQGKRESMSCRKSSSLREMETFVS", "test": "Test on the AT2 receptor of angiotensin II (displacement of 125I angiotensin II, rabbit uterus membranes)", "assay_type": "binding", "settings": "rabbit uterus membranes (estradiol pre-treated), 10 mM dithiothreitol preincubation, 25° C., 150 minutes, pH 7.4", "protocol": "2) Test on the AT2 receptor of angiotensin II\nas §1, with “rabbit's uterus” for “rat's liver”, “used, pre-treated 4 days beforehand with 50 ug of estradiol administered by percutaneous route.” for “used.”, “7.4 and” for “7.4,”\nThe last pellets are suspended in an incubation buffer (20 mM Tris, 135 mM NaCl, 10 mM KCl, 5 mM glucose, 10 mM MgCl2 6H2 O), 0.3 mM PMSF, 0.1 mM bacitracin, 0.1 o/oo lysozyme, pH 7.4).\nThe homogenate obtained is preincubated for 20 minutes at 25° C. in the presence of 10 mM dithiothreitol, then brought back to 0°-4° C.\nas §2, with “The” for “(The”, “times.” for “times).”, “determined.” for “determined).”\nas §3, with “[…]” for “non-specific”, “EXP 655 (=PD 123-177 from Warner-Lambert)” for “the product of Example 94 of the European Patent 0,253,310,”, “(in triplicate).” for “(three times).”\nas §4"}, "angiotensin II": {"tested_on": "angiotensin II", "test": "Test for antagonistic activity of angiotensin II in the demedullated rat", "assay_type": "in vivo, rat (male Sprague Dawley)", "settings": "angiotensin II 0.75 micrograms/kg, read-out: ID50 (50% inhibitory dose of the pressure effect of angiotensin II)"}, "[3]": {"settings": "IV, injected 5 minutes before angiotensin II"}}, "note": "Where two headings read alike, the source gives them in different places."}
{"smiles": "CCCc1nc(SC)c(C(=O)C[S+]([O-])c2ccccc2)n1Cc1ccc(-c2ccccc2S(=O)(=O)NC(=O)CCC2CCCC2)cc1", "note": "(racemic) [Example 47, (±) N-(4'-((4-(methylthio) 5-((phenylsulphinyl)acetyl) 2-propyl 1H-imidazol 1-yl)methyl) (1,1'-biphenyl-2yl)sulphonyl) cyclopentanepropanamide]", "values": [{"measurement": "IC50", "setting": "[1]", "result": 0.09, "unit": "nM"}, {"measurement": "IC50", "setting": "[2]", "result": 2.09, "unit": "nM"}]}
{"smiles": "CCCCc1nc(SC)c(C(=O)C(=O)O)n1Cc1ccc(-c2ccccc2S(=O)(=O)NC(=O)NCc2ccccc2)cc1", "note": "[Example 10, 2-butyl 4-(methylthio) alpha oxo 1-((2'-(((((phenylmethyl)amino)carbonyl)amino)sulphonyl) (1,1'-biphenyl) 4-yl)methyl) 1-H-imidazole 5-acetic acid]", "values": [{"measurement": "IC50", "setting": "[1]", "result": 0.18, "unit": "nM"}, {"measurement": "IC50", "setting": "[2]", "result": 38, "unit": "nM"}]}
{"smiles": "CCCc1nc(SC)c(C(=O)C[S+]([O-])c2ccccc2)n1Cc1ccc(-c2ccccc2S(=O)(=O)NC(=O)NCc2cccs2)cc1", "note": "(stereo not drawn) [Example 34, 4'-((4-(methylthio) 5-((phenylsulphinyl)acetyl) 2-propyl 1H-imidazol-1-yl)methyl) N-(((2-thienylmethyl)amino)carbonyl) (1,1'-biphenyl) 2-sulphonamide]", "values": [{"measurement": "IC50", "setting": "[1]", "result": 0.05, "unit": "nM"}, {"measurement": "IC50", "setting": "[2]", "result": 2.2, "unit": "nM"}]}
{"smiles": "CCCCc1nc(SC)c(C(=O)Nc2nnn[nH]2)n1Cc1ccc(-c2ccccc2S(=O)(=O)NC(=O)NCCC)cc1", "note": "[Example 13]", "values": [{"measurement": "IC50", "setting": "[1]", "result": 0.24, "unit": "nM"}, {"measurement": "IC50", "setting": "[2]", "result": 24, "unit": "nM"}, {"measurement": "ED50", "setting": "angiotensin II; [3]", "result": 0.12, "unit": "mg/kg"}]}
{"smiles": "CCCc1nc(SC)c(C(=O)C[S+]([O-])c2ccccc2)n1Cc1ccc(-c2ccccc2S(=O)(=O)NC(=O)NCc2ccccc2)cc1", "note": "(stereo not drawn) [Example 20, 4'-((4-(methylthio) 5-(2-(phenylsulphinyl)acetyl) 2-propyl 1H-imidazol-1-yl)methyl) N-(((phenylmethyl)amino)carbonyl) (1,1'-biphenyl) 2-sulphonamide]", "values": [{"measurement": "IC50", "setting": "[1]", "result": 0.08, "unit": "nM"}, {"measurement": "IC50", "setting": "[2]", "result": 0.8, "unit": "nM"}, {"measurement": "ED50", "setting": "angiotensin II; [3]", "result": 0.04, "unit": "mg/kg"}, {"measurement": "ED50", "setting": "angiotensin II; PO", "result": 0.8, "unit": "mg/kg"}]}
{"smiles": "CCCc1nc(SC)c(C(=O)C[S+]([O-])c2ccccc2)n1Cc1ccc(-c2ccccc2S(=O)(=O)NC(=O)NCC2CCCC2)cc1", "note": "(racemic) [Example 46, (±) N-(((cyclopentylmethyl)amino)carbonyl) 4'-((4-(methylthio) 5-((phenylsulphinyl)acetyl) 2-propyl 1H-imidazol 1-yl)methyl) (1,1'-biphenyl) 2-sulphonamide]", "values": [{"measurement": "IC50", "setting": "[1]", "result": 0.4, "unit": "nM"}, {"measurement": "IC50", "setting": "[2]", "result": 2.5, "unit": "nM"}]}
{"smiles": "CCCCc1nc(SC)c(C(=O)CC(=O)OCC)n1Cc1ccc(-c2ccccc2S(=O)(=O)NC(=O)NCc2ccccc2)cc1", "note": "[Example 21, ethyl 2-butyl 4-(methylthio) beta-oxo-1-((2'-(((((phenylmethyl)amino)carbonyl)amino)sulphonyl) (1,1'-biphenyl) 4-yl)methyl) 1H-imidazole 5-propanoate]", "values": [{"measurement": "IC50", "setting": "[1]", "result": 0.08, "unit": "nM"}, {"measurement": "IC50", "setting": "[2]", "result": 1, "unit": "nM"}, {"measurement": "ED50", "setting": "angiotensin II; [3]", "result": 0.08, "unit": "mg/kg"}]}
{"smiles": "CCCCc1nc(SC)c(C(=O)C(=O)NCc2ccccc2)n1Cc1ccc(-c2ccccc2S(=O)(=O)NC(=O)NCc2ccccc2)cc1", "note": "[Example 11, 2-butyl 4-(methylthio) alpha oxo N-(phenylmethyl) 1-((2'-(((((phenylmethyl)amino)carbonyl)amino)sulphonyl) (1,1'-biphenyl) 4-yl)methyl) 1-H-imidazole 5-acetamide]", "values": [{"measurement": "IC50", "setting": "[1]", "result": 0.6, "unit": "nM"}, {"measurement": "IC50", "setting": "[2]", "result": 53, "unit": "nM"}]}
{"smiles": "CCCCc1nc(SC)c(C(=O)C(=O)O)n1Cc1ccc(-c2ccccc2S(=O)(=O)NC(=O)NCC2CCCCC2)cc1", "note": "[Example 7, 2-butyl 1-((2'-(((((cyclohexylmethyl)amino)carbonyl)amino)sulphonyl) (1,1'-biphenyl) 4-yl)methyl) 4-methylthio alpha oxo-1H-imidazole 5-acetic acid]", "values": [{"measurement": "IC50", "setting": "[1]", "result": 0.7, "unit": "nM"}, {"measurement": "IC50", "setting": "[2]", "result": 6.8, "unit": "nM"}]}
{"smiles": "CCCc1nc(SC)c(C(=O)Nc2nn[nH]n2)n1Cc1ccc(-c2ccccc2S(=O)(=O)NC(=O)NCc2ccccc2)cc1", "note": "[Example 15, 4-(methylthio) 1-((2'-(((((phenylmethyl)amino)carbonyl)amino)sulphonyl) (1,1'-biphenyl) 4-yl)methyl) 2-propyl N-(2H-tetrazol 5-yl) 1H-imidazole 5-carboxamide]", "values": [{"measurement": "IC50", "setting": "[1]", "result": 0.2, "unit": "nM"}, {"measurement": "IC50", "setting": "[2]", "result": 2, "unit": "nM"}]}
{"smiles": "CCCCc1nc(SC)c(C(=O)CC(=O)OCC)n1Cc1ccc(-c2ccccc2S(=O)(=O)NC(=O)NCCC)cc1", "note": "[Example 12]", "values": [{"measurement": "IC50", "setting": "[1]", "result": 0.2, "unit": "nM"}, {"measurement": "IC50", "setting": "[2]", "result": 83, "unit": "nM"}]}
{"smiles": "CCCCc1nc(SC)c(C(=O)C[S+](C)[O-])n1Cc1ccc(-c2ccccc2S(=O)(=O)NC(=O)NCc2ccccc2)cc1", "note": "(stereo not drawn) [Example 9, 4'-((2-butyl 5-(2-(methylsulphinyl)acetyl) 4-(methylthio) 1H-imidazol 1-yl)methyl) N-(((phenylmethyl)amino)carbonyl) (1,1'-biphenyl) 2-sulphonamide]", "values": [{"measurement": "IC50", "setting": "[1]", "result": 0.3, "unit": "nM"}, {"measurement": "IC50", "setting": "[2]", "result": 15, "unit": "nM"}, {"measurement": "ED50", "setting": "angiotensin II; [3]", "result": 0.06, "unit": "mg/kg"}, {"measurement": "ED50", "setting": "angiotensin II; PO", "result": 0.7, "unit": "mg/kg"}]}
